Common to all, as to type: biochemical
One experiment concerns the target PDE1C (Homo sapiens (Human), UniProt Q14123). Description: PDE1 inhibition assay, PDE1C. The conditions noted are these: for inhibition at 10 µM: @ 10 μM compound, read-out: PDE1 C, % inhibition @ 10 μM; for IC50: 15 nM tritium labelled cAMP, 1 hr at room temperature, SPA beads, read-out: PDE1 C, IC50; for inhibition at 1 µM: @ 1 μM compound, read-out: PDE1 C, % inhibition @ 1 μM. Summed up: (§1)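 Scintillation proximity read-out (yttrium silicate beads, 1 h settling) quantified hydrolysis of 15 nM tritiated cAMP after a 1 h room-temperature reaction. The buffer was HEPES pH 7.6 with MgCl2, Tween20 and BSA, and enzyme was set to convert 20–25% of substrate. Activity was normalized to the uninhibited control (100%) to derive IC50.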

Another experiment has as its target PDE1A (Homo sapiens (Human), UniProt P54750). Kind of experiment: PDE1 inhibition assay, PDE1A. The following applies: for inhibition at 10 µM: @ 10 μM compound; for IC50: 15 nM tritium labelled cAMP, 1 hr at room temperature, SPA beads; for inhibition at 1 µM: @ 1 μM compound. In short, it runs like this: as §1
The target of a further experiment is PDE1B (Homo sapiens (Human), UniProt Q01064). Kind of experiment: PDE1 inhibition assay, PDE1B. The following applies: 15 nM tritium labelled cAMP, 1 hr at room temperature, SPA beads; read-out: PDE1 B, IC50. Summed up:
as §1

Sequence of PDE1C (Q14123 whole entry): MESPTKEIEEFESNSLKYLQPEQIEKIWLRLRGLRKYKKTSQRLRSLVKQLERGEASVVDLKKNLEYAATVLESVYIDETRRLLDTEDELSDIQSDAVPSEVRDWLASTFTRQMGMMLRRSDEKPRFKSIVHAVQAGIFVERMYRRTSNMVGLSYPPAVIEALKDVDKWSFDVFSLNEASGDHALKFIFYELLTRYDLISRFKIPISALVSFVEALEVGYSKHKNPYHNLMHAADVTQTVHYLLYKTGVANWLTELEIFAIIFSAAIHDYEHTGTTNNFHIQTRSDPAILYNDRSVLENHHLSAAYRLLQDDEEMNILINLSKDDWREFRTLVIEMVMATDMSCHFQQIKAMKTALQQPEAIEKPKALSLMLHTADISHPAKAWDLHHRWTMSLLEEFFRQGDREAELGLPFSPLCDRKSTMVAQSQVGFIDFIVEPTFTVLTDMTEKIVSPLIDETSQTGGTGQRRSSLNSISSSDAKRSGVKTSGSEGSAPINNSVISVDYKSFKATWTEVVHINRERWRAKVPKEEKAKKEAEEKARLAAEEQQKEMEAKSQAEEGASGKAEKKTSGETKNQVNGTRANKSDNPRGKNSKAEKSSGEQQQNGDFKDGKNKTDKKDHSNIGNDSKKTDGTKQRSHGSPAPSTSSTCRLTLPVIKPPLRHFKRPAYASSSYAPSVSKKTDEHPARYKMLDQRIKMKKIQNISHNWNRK
Sequence of PDE1A (P54750 whole entry): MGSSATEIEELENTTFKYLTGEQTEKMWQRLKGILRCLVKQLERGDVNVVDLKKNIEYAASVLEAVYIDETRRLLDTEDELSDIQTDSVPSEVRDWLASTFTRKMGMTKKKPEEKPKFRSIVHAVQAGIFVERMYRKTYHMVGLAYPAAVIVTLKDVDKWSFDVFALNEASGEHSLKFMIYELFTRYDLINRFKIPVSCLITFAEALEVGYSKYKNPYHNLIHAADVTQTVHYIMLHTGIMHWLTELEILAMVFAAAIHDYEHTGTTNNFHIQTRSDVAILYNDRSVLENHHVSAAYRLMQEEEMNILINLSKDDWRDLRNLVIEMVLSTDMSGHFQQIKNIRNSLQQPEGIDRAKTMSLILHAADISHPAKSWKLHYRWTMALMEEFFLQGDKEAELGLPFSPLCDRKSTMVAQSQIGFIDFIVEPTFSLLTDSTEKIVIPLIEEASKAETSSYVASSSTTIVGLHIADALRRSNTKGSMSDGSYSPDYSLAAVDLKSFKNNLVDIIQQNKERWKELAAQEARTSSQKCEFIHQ
Sequence of PDE1B (Q01064 whole entry): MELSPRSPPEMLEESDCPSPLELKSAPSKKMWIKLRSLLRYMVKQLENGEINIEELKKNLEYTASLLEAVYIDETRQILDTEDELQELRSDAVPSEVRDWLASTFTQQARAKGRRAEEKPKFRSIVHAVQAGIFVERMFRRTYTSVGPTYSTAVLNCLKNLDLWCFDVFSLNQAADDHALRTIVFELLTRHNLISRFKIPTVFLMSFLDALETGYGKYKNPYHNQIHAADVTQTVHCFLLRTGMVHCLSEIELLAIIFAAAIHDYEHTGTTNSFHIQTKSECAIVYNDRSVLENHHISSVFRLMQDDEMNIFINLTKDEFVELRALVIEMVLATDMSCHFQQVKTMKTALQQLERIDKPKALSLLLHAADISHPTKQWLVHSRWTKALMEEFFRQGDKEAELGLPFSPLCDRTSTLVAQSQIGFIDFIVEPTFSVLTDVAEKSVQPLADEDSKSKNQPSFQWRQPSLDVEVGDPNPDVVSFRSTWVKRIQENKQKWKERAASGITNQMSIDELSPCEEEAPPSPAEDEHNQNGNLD

In general, inhibition refers to the percentage by which the read-out fell short of the control. The IC50 is the concentration needed to halve the response being measured. For the compound `CC(C)n1ncc2nc(-c3cncc(C#N)c3)cc(N[C@@H]3CCOC3)c21` [Example 44, 5-[1-isopropyl-7-[[(3R)-tetrahydrofuran-3-yl]amino]pyrazolo[4,3-b]pyridin-5-yl]pyridine-3-carbonitrile], the inhibition at 10 µM at PDE1C is 47%; at PDE1A it was 33%. The IC50 at PDE1B is 4010 nM.
On to `CC(C)n1ncc2nc(-c3cccnc3)cc(N[C@@H]3CCOC3)c21` [Example 25, 1-isopropyl-5-(3-pyridyl)-N-[(3R)-tetrahydrofuran-3-yl]pyrazolo[4,3-b]pyridin-7-amine], for which the inhibition at 10 µM at PDE1C came to 65%. For the same compound, the half-inhibitory concentration (IC50) came out at 2160 nM against PDE1A and 648 nM on PDE1B.
Take `COc1cnccc1-c1cc(N[C@@H]2CCOC2)c2c(cnn2C(C)C)n1` [Example 30, 1-isopropyl-5-(3-methoxy-4-pyridyl)-N-[(3R)-tetrahydrofuran-3-yl]pyrazolo[4,3-b]pyridin-7-amine]: the half-inhibitory concentration (IC50) at PDE1C was 2560 nM; at PDE1A, 1550 nM; on PDE1B, 236 nM.
Consider `COc1ncc(C)cc1-c1cc(N[C@@H]2CCOC2)c2c(cnn2C(C)C)n1` [Example 52, 1-isopropyl-5-(2-methoxy-5-methyl-3-pyridyl)-N-[(3R)-tetrahydrofuran-3-yl]pyrazolo[4,3-b]pyridin-7-amine], for which the IC50 is 1820 nM at PDE1C and 1320 nM on PDE1B. This compound had an inhibition at 10 µM against PDE1A of 56%.
Consider `COc1nc(C)ccc1-c1cc(N[C@@H]2CCOC2)c2c(cnn2C(C)C)n1` [Example 29, 1-isopropyl-5-(2-methoxy-6-methyl-3-pyridyl)-N-[(3R)-tetrahydrofuran-3-yl]pyrazolo[4,3-b]pyridin-7-amine], for which the inhibition at 10 µM at PDE1C turned out to be 68%; at PDE1A it was 31%. Further, at PDE1B, the half-inhibitory concentration (IC50) was 1690 nM.
Turning to `COc1ccccc1-c1nc2c(C)nn(C(C)C)c2cc1C` [Example 62, 1-isopropyl-5-(2-methoxyphenyl)-3,6-dimethyl-pyrazolo[4,3-b]pyridine], the results for the 50% inhibitory concentration (IC50) on PDE1C, against PDE1A and at PDE1B were 568 nM, 694 nM and 159 nM, respectively.
For `CCOc1ncccc1-c1cc(NCC2CCC(=O)N2C)c2c(n1)c(C)nn2C(C)C` (racemic) [Example 67, (±)-5-[[[5-(2-ethoxy-3-pyridyl)-1-isopropyl-3-methyl-pyrazolo[4,3-b]pyridin-7-yl]amino]methyl]-1-methyl-pyrrolidin-2-one], the values for the half-inhibitory concentration (IC50) at PDE1C, against PDE1A and on PDE1B were 106 nM, 70 nM and 11 nM, respectively.
For the compound `CCOc1ncccc1-c1ccn2c([C@H](C)CC)nc(C)c2n1` (single isomer, unassigned) [Example 83, 2-(2-ethoxy-3-pyridyl)-8-methyl-6-[1-methylpropyl]imidazo[1,5-a]pyrimidine], the IC50 came to 77 nM at PDE1C, 51 nM against PDE1A and 6 nM at PDE1B.
As to `CCOc1ncccc1-c1cc(N[C@H]2CCCOC2)c2c(cnn2C(C)C)n1` [Example 9, 5-(2-ethoxy-3-pyridyl)-1-isopropyl-N-[(3S)-tetrahydropyran-3-yl]pyrazolo[4,3-b]pyridin-7-amine], the concentration for half-maximal inhibition (IC50) at PDE1C is 2700 nM; against PDE1A it was 687 nM; on PDE1B, 295 nM.
Take `CC(C)n1ncc2nc(-c3cccc(OC(F)F)c3)cc(N[C@@H]3CCOC3)c21` [Example 48, 5-[3-(difluoromethoxy)phenyl]-1-isopropyl-N-[(3R)-tetrahydrofuran-3-yl]pyrazolo[4,3-b]pyridin-7-amine]: the IC50 was found to be 1730 nM at PDE1C, 1100 nM against PDE1A and 384 nM on PDE1B.
In the case of `CCOc1ncccc1-c1cc(N2CCC(C)(F)C2)c2c(cnn2C)n1` (racemic) [Example 87, (±)-5-(2-ethoxy-3-pyridyl)-7-(3-fluoro-3-methyl-pyrrolidin-1-yl)-1-methyl-pyrazolo[4,3-b]pyridine], the inhibition at 1 µM at PDE1C was 26%; on PDE1A, 42%. For the same compound, the 50% inhibitory concentration (IC50) on PDE1B is 376 nM.
For the compound `CCOc1ncccc1-c1nc2c(C)nn(CC)c2cc1C` [Example 15, 5-(2-ethoxy-3-pyridyl)-1-ethyl-3,6-dimethyl-pyrazolo[4,3-b]pyridine], the IC50 on PDE1C was determined as 1890 nM; at PDE1A, 1010 nM; on PDE1B, 156 nM.
As to `CC(C)n1ncc2nc(-c3ccccc3C#N)cc(N[C@@H]3CCOC3)c21` [Example 41, 2-[1-isopropyl-7-[[(3R)-tetrahydrofuran-3-yl]amino]pyrazolo[4,3-b]pyridin-5-yl]benzonitrile], the results for the half-maximal inhibitory concentration (IC50) on PDE1C, against PDE1A and at PDE1B were 1710 nM, 951 nM and 248 nM, respectively.
In the case of `CC(C)n1ncc2nc(-c3cncnc3)cc(N[C@@H]3CCOC3)c21` [Example 26, 1-isopropyl-5-pyrimidin-5-yl-N-[(3R)-tetrahydrofuran-3-yl]pyrazolo[4,3-b]pyridin-7-amine], the inhibition at 10 µM came to 70% on PDE1C and 54% on PDE1A. In addition, the IC50 on PDE1B worked out at 3650 nM.
With `COc1cncc(-c2cc(N[C@@H]3CCOC3)c3c(cnn3C(C)C)n2)c1` [Example 47, 1-isopropyl-5-(5-methoxy-3-pyridyl)-N-[(3R)-tetrahydrofuran-3-yl]pyrazolo[4,3-b]pyridin-7-amine], the IC50 is 1550 nM on PDE1C, 1520 nM at PDE1A and 599 nM on PDE1B.
As to `CCNc1cc(-c2cccnc2OCC)nc2c(C)nn(C(C)C)c12` [Example 66, 5-(2-ethoxy-3-pyridyl)-N-ethyl-1-isopropyl-3-methyl-pyrazolo[4,3-b]pyridin-7-amine], the IC50 was found to be 161 nM at PDE1C, 60 nM against PDE1A and 5 nM at PDE1B.
For the compound `COc1cccnc1-c1cc(N[C@@H]2CCOC2)c2c(cnn2C(C)C)n1` [Example 40, 1-isopropyl-5-(3-methoxy-2-pyridyl)-N-[(3R)-tetrahydrofuran-3-yl]pyrazolo[4,3-b]pyridin-7-amine], the figures for the inhibition at 10 µM at PDE1C and on PDE1A were 26% and 81%, respectively. Besides, at PDE1B, the IC50 was found to be 2140 nM.
As to `Cc1cccnc1-c1cc(N[C@@H]2CCOC2)c2c(cnn2C(C)C)n1` [Example 39, 1-isopropyl-5-(3-methyl-2-pyridyl)-N-[(3R)-tetrahydrofuran-3-yl]pyrazolo[4,3-b]pyridin-7-amine], the inhibition at 10 µM on PDE1C stood at 59%; against PDE1A, 61%. Moreover, on PDE1B, the concentration for half-maximal inhibition (IC50) is 1890 nM.
Consider `CCOc1ncccc1-c1cc(N[C@@H]2CCOC2)c2c(cnn2CC)n1` (single isomer, unassigned) [Example 19, 5-(2-ethoxy-3-pyridyl)-1-ethyl-N-[tetrahydrofuran-3-yl]pyrazolo[4,3-b]pyridin-7-amine], for which the figures for the half-inhibitory concentration (IC50) on PDE1C, against PDE1A and at PDE1B were 3060 nM, 326 nM and 86 nM, respectively.
With `COc1ncccc1-c1nc2c(C)nn(C(C)C)c2cc1C` [Example 61, 1-isopropyl-5-(2-methoxy-3-pyridyl)-3,6-dimethyl-pyrazolo[4,3-b]pyridine], the values for the IC50 on PDE1C, against PDE1A and at PDE1B were 236 nM, 288 nM and 84 nM, respectively.
Regarding `CCOc1ncccc1-c1cc(N2CC[C@@H](OC)C2)c2c(cnn2C)n1` [Example 85, 5-(2-ethoxy-3-pyridyl)-7-[(3R)-3-methoxypyrrolidin-1-yl]-1-methyl-pyrazolo[4,3-b]pyridine], the inhibition at 1 µM on PDE1C was 56%; at PDE1A, 23%. The IC50 on PDE1B was 536 nM.
For `CCOc1ncccc1-c1ccn2c(C3CCCC3)nc(C)c2n1` [Example 80, 6-cyclopentyl-2-(2-ethoxy-3-pyridyl)-8-methyl-imidazo[1,5-a]pyrimidine], the results for the 50% inhibitory concentration (IC50) at PDE1C, against PDE1A and on PDE1B were 2280 nM, 3230 nM and 591 nM, respectively.

Values taken from patent publication US11535611B2, “Pyrazolo[3,4-B]pyridines and imidazo[1,5-B]pyridazines as PDE1 inhibitors” (H. Lundbeck A/S, priority 2017, dated 2022).
